This assay addresses human PHD2184-418 (Homo sapiens (Human), UniProt Q9GZT9). Description: PHD2 inhibitory test (fluorescence polarization, binding between PHD2 and HIF-1α). The following applies: human PHD2184-418, FITC-labeled HIF-1α556-574, 2 μM 2-oxoglutarate, 37° C. 60 minutes. How it is done:
Test Example 1 PHD2 Inhibitory Test
(1) Expression and Preparation of Human PHD2184-418
Human PHD2184-418 containing amino acid residues 184 to 418 of the protein represented by CAC42509 (GenBank accession ID) was expressed and prepared by the following method.
An expression construct of human PHD2184-418 containing N-terminal histidine tag was introduced into pET-30a (+) vector, and the sequence was confirmed. This vector was introduced into BL21 (DE3) strain and cultured at 37° C. in LB medium containing antibiotics. After culturing, a cell lysis solution was added to the cells, and then the cells were disrupted by sonication. The disrupted suspension was centrifuged and the supernatant was purified by Ni column to give human PHD2184-418.
Human HIF-1α556-574 (FITC-labeled HIF-1α556-574), containing N-terminal FITC-Ahx, containing amino acid residues 556 to 574 (partial peptide) of HIF-1α was used as a substrate. Using FITC-labeled HIF-1α556-574, the competitive inhibition between 2-oxoglutarate and test compounds (PHD inhibitor) was evaluated based on the change in fluorescence polarization by the following method.
An enzyme (human PHD2184-418) and the substrate were diluted with an assay buffer (pH 7.4) containing 10 mM HEPES, 150 mM NaCl, 10 μM MnCl2-4H2O, 2 μM 2-oxoglutarate and 0.05% Tween-20. Test compounds were diluted with DMSO. Test compounds and human PHD2184-418 was added to the 384-well plate (Corning, black, opaque bottom) in advance. The reaction was started by the addition of FITC-labeled HIF-1α556-574. After incubating at 37° C. for 60 minutes, fluorescence polarization (excitation wavelength: 470 nm, fluorescence wavelength: 530 nm) was measured by PHERAstar FSX (BMG Labtech). Fluorescence polarization of each well was measured, and human PHD2 binding inhibitory activity of test compounds was calculated based on the value of test compound-free group.

From patent publication US12077531B2, “Imidazopyridinone compound” (KISSEI PHARMACEUTICAL CO., LTD., priority 2018, dated 2024) come the findings set out here.

For orientation: IC50 means the concentration needed to halve the response being measured. Low values mean greater potency, high ones weaker potency.

Sequence of human PHD2184-418 (Q9GZT9 184-418): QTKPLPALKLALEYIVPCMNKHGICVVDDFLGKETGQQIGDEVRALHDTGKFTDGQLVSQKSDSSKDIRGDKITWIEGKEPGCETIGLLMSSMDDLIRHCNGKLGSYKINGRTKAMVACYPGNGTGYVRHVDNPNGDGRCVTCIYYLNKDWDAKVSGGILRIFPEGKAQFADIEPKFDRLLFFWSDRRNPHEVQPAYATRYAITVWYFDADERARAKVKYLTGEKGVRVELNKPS

`O=C(O)c1ccnc(CN2CC[C@H](n3c(=O)n(-c4ccc(-c5ccc(O)c(C(=O)O)c5)cc4O)c4cccnc43)C2)c1` [Example 53, (S)-2-((3-(1-(3′-Carboxy-3,4′-dihydroxy-[1,1′-biphenyl]-4-yl)-2-oxo-1,2-dihydro-3H-imidazo[4,5-b]pyridin-3-yl)pyrrolidin-1-yl)methyl)isonicotinic acid] returned an IC50 of 0.14 µM.

Consider `Cn1c(C(=O)O)cnc1CN1CC[C@H](n2c(=O)n(-c3cccc(-c4ccccc4)c3)c3cccnc32)C1` [Example 54, (S)-2-((3-(1-([1,1′-Biphenyl]-3-yl)-2-oxo-1,2-dihydro-3H-imidazo[4,5-b]pyridin-3-yl)pyrrolidin-1-yl)methyl)-1-methyl-1H-imidazole-5-carboxylic acid], for which the 50% inhibitory concentration (IC50) came out at 0.77 µM.

`CN(C)c1ccc(-n2c(=O)n([C@H]3CCN(Cc4ncc(C(=O)O)n4C)C3)c3ncccc32)cc1` [Example 55, (S)-2-((3-(1-(4-(Dimethylamino)phenyl)-2-oxo-1,2-dihydro-3H-imidazo[4,5-b]pyridin-3-yl)pyrrolidin-1-yl)methyl)-1-methyl-1H-imidazole-5-carboxylic acid] yielded an IC50 of 0.49 µM.

In turn, `Cn1c(C(=O)O)cnc1CN1CC[C@H](n2c(=O)n(-c3ccc(Oc4ccccc4)cc3)c3cccnc32)C1` [Example 56, (S)-1-Methyl-2-((3-(2-oxo-1-(4-phenoxyphenyl)-1,2-dihydro-3H-imidazo[4,5-b]pyridin-3-yl)pyrrolidin-1-yl)methyl)-1H-imidazole-5-carboxylic acid] gave an IC50 of 0.41 µM.

The molecule `Cn1c(C(=O)O)cnc1CN1CC[C@H](n2c(=O)n(-c3ccc(Cc4ccccc4)cc3)c3cccnc32)C1` [Example 57, (S)-2-((3-(1-(4-Benzylphenyl)-2-oxo-1,2-dihydro-3H-imidazo[4,5-b]pyridin-3-yl)pyrrolidin-1-yl)methyl)-1-methyl-1H-imidazole-5-carboxylic acid] came in with an IC50 of 0.71 µM.

Take `Cc1ccc(-n2c(=O)n([C@H]3CCN(Cc4ncc(C(=O)O)n4C)C3)c3ncccc32)cc1` [Example 58, (S)-1-Methyl-2-((3-(2-oxo-1-(p-tolyl)-1,2-dihydro-3H-imidazo[4,5-b]pyridin-3-yl)pyrrolidin-1-yl)methyl)-1H-imidazole-5-carboxylic acid]: the IC50 came to 1.02 µM.

Molecule `Cn1c(C(=O)O)cnc1CN1CC[C@H](n2c(=O)n(-c3ccc(Cl)cc3)c3cccnc32)C1` [Example 59, (S)-2-((3-(1-(4-Chlorophenyl)-2-oxo-1,2-dihydro-3H-imidazo[4,5-b]pyridin-3-yl)pyrrolidin-1-yl)methyl)-1-methyl-1H-imidazole-5-carboxylic acid] displayed an IC50 of 0.18 µM.

On to `CSc1ccc(-n2c(=O)n([C@H]3CCN(Cc4ncc(C(=O)O)n4C)C3)c3ncccc32)cc1` [Example 60, (S)-1-Methyl-2-((3-(1-(4-(methylthio)phenyl)-2-oxo-1,2-dihydro-3H-imidazo[4,5-b]pyridin-3-yl)pyrrolidin-1-yl)methyl)-1H-imidazole-5-carboxylic acid], for which the IC50 stood at 0.59 µM.

In turn, `Cn1c(C(=O)O)cnc1CN1CC[C@H](n2c(=O)n(-c3ccc(OC(F)(F)F)cc3)c3cccnc32)C1` [Example 62, (S)-1-Methyl-2-((3-(2-oxo-1-(4-(trifluoromethoxy)phenyl)-1,2-dihydro-3H-imidazo[4,5-b]pyridin-3-yl)pyrrolidin-1-yl)methyl)-1H-imidazole-5-carboxylic acid] registered an IC50 of 1.85 µM.

Turning to `Cn1c(C(=O)O)cnc1CN1CC[C@H](n2c(=O)n(-c3ccc(C(F)(F)F)cc3)c3cccnc32)C1` [Example 63, (S)-1-Methyl-2-((3-(2-oxo-1-(4-(trifluoromethyl)phenyl)-1,2-dihydro-3H-imidazo[4,5-b]pyridin-3-yl)pyrrolidin-1-yl)methyl)-1H-imidazole-5-carboxylic acid], the IC50 worked out at 1.92 µM.

The molecule `Cn1c(C(=O)O)cnc1CN1CC[C@H](n2c(=O)n(-c3ccc(C#N)cc3)c3cccnc32)C1` [Example 64, (S)-2-((3-(1-(4-Cyanophenyl)-2-oxo-1,2-dihydro-3H-imidazo[4,5-b]pyridin-3-yl)pyrrolidin-1-yl)methyl)-1-methyl-1H-imidazole-5-carboxylic acid] yielded an IC50 of 7.89 µM.

For `Cn1c(C(=O)O)cnc1CN1CC[C@H](n2c(=O)n(-c3ccc([N+](=O)[O-])cc3)c3cccnc32)C1` [Example 65, (S)-1-Methyl-2-((3-(1-(4-nitrophenyl)-2-oxo-1,2-dihydro-3H-imidazo[4,5-b]pyridin-3-yl)pyrrolidin-1-yl)methyl)-1H-imidazole-5-carboxylic acid], the IC50 stood at 2.4 µM.

Consider `Cn1c(C(=O)O)cnc1CN1CC[C@H](n2c(=O)n(-c3cnc4ccccc4c3)c3cccnc32)C1` [Example 66, (S)-1-Methyl-2-((3-(2-oxo-1-(quinolin-3-yl)-1,2-dihydro-3H-imidazo[4,5-b]pyridin-3-yl)pyrrolidin-1-yl)methyl)-1H-imidazole-5-carboxylic acid], for which the IC50 was determined as 1.17 µM.

Molecule `Cn1c(C(=O)O)cnc1CN1CC[C@H](n2c(=O)n(-c3ccc(N4CCOCC4)cc3)c3cccnc32)C1` [Example 67, (S)-1-Methyl-2-((3-(1-(4-morpholinophenyl)-2-oxo-1,2-dihydro-3H-imidazo[4,5-b]pyridin-3-yl)pyrrolidin-1-yl)methyl)-1H-imidazole-5-carboxylic acid] returned an IC50 of 0.52 µM.

Consider `Cn1c(C(=O)O)cnc1CN1CC[C@H](n2c(=O)n(C3CCC(c4ccccc4)CC3)c3cccnc32)C1` (stereo partly drawn) [Example 68, (S)-1-Methyl-2-((3-(2-oxo-1-(4-phenylcyclohexyl)-1,2-dihydro-3H-imidazo[4,5-b]pyridin-3-yl)pyrrolidin-1-yl)methyl)-1H-imidazole-5-carboxylic acid], for which the IC50 stood at 8.15 µM.

`C=Cc1ccc(-n2c(=O)n([C@H]3CCN(Cc4ncc(C(=O)O)n4C)C3)c3ncccc32)cc1` [Example 69, (S)-1-Methyl-2-((3-(2-oxo-1-(4-vinylphenyl)-1,2-dihydro-3H-imidazo[4,5-b]pyridin-3-yl)pyrrolidin-1-yl)methyl)-1H-imidazole-5-carboxylic acid] returned an IC50 of 0.5 µM.

In turn, `Cn1c(C(=O)O)cnc1CN1CC[C@H](n2c(=O)n(-c3ccsc3)c3cccnc32)C1` [Example 70, (S)-1-Methyl-2-((3-(2-oxo-1-(thiophen-3-yl)-1,2-dihydro-3H-imidazo[4,5-b]pyridin-3-yl)pyrrolidin-1-yl)methyl)-1H-imidazole-5-carboxylic acid] showed an IC50 of 1.45 µM.

Consider `Cn1c(C(=O)O)cnc1CN1CC[C@H](n2c(=O)n(Cc3ccccc3)c3cccnc32)C1` [Example 71, (S)-2-((3-(1-Benzyl-2-oxo-1,2-dihydro-3H-imidazo[4,5-b]pyridin-3-yl)pyrrolidin-1-yl)methyl)-1-methyl-1H-imidazole-5-carboxylic acid], for which the IC50 is 13.9 µM.

With `Cn1c(C(=O)O)cnc1CN1CC[C@H](n2c(=O)n(-c3ccc(O)cc3)c3cccnc32)C1` [Example 73, (S)-2-((3-(1-(4-Hydroxyphenyl)-2-oxo-1,2-dihydro-3H-imidazo[4,5-b]pyridin-3-yl)pyrrolidin-1-yl)methyl)-1-methyl-1H-imidazole-5-carboxylic acid], the half-maximal inhibitory concentration (IC50) was determined as 3 µM.

`Cn1c(C(=O)O)cnc1CN1CC[C@H](n2c(=O)n(-c3ccc(-c4ccc(NS(C)(=O)=O)cc4)cc3)c3cccnc32)C1` [Example 74, (S)-1-Methyl-2-((3-(1-(4′-(methylsulfonamido)-[1,1′-biphenyl]-4-yl)-2-oxo-1,2-dihydro-3H-imidazo[4,5-b]pyridin-3-yl)pyrrolidin-1-yl)methyl)-1H-imidazole-5-carboxylic acid] came in with an IC50 of 1.85 µM.

For the molecule `Cc1cccnc1CN1CC[C@H](n2c(=O)n(-c3ccc(C(=O)NCC(=O)O)cc3)c3cccnc32)C1` [Example 75, (S)-(4-(3-(1-((3-Methylpyridin-2-yl)methyl)pyrrolidin-3-yl)-2-oxo-2,3-dihydro-1H-imidazo[4,5-b]pyridin-1-yl)benzoyl)glycine], the IC50 was 99.9 µM.

In the case of `Cn1c(C(=O)O)cnc1CN1CC[C@H](n2c(=O)n(-c3ccc(-c4ccccc4)cc3)c3ccc(C(=O)NC4CCOCC4)nc32)C1` [Example 76, (S)-2-((3-(1-([1,1′-Biphenyl]-4-yl)-2-oxo-5-((tetrahydro-2H-pyran-4-yl)carbamoyl)-1,2-dihydro-3H-imidazo[4,5-b]pyridin-3-yl)pyrrolidin-1-yl)methyl)-1-methyl-1H-imidazole-5-carboxylic acid], the IC50 worked out at 9.74 µM.

The molecule `Cn1c(C(=O)O)cnc1CN1CC[C@H](n2c(=O)n(-c3ccc(-c4ccccc4)cc3)c3ccc(C(=O)NCC(=O)O)nc32)C1` [Example 77, (S)-2-((3-(1-([1,1′-Biphenyl]-4-yl)-5-((carboxymethyl)carbamoyl)-2-oxo-1,2-dihydro-3H-imidazo[4,5-b]pyridin-3-yl)pyrrolidin-1-yl)methyl)-1-methyl-1H-imidazole-5-carboxylic acid] returned an IC50 of 0.61 µM.
